Measurements from patent publication US8399466B2, “Composition for regenerative treatment of cartilage disease” (Mitsubishi Tanabe Pharma Corporation, priority 2001, dated 2013).

What was measured:
[1] = system: cAMP hydrolytic PDE expressed in human articular cartilage (fraction Nos. 28-30); assay: Inhibition of cAMP hydrolyzing activity of fraction Nos. 28-30 of human articular cartilage extract; assay type: biochemical
Protocol: From the human knee articular cartilage was isolated on surgery of osteoarthrosis patients. Cartilage portion was scrapped with a surgery knife, washed with ice-cold phosphate buffer and stored at −80° C. The cartilage tissues were milled at −80° C. and then, scattered into pieces with homogenizer (Kinematica A.G., Polytron) in ice-cold homogenization buffer (20 mM Tris-HCl, pH 8.0, 1 mM ethylene glycol bis(β-aminoethylether)-N,N,N′,N′-tetraacetic acid, 1 mM dithiothreitol, 10 μg/ml leupeptin, 5 mM benzamidine, 0.2 mM phenylmethylsulfonyl fluoride, 1 mM sodium azide and 5 mM mercaptoethanol). The resultant homogenate was centrifuged (100,000×g; 30 minutes) to separate supernatant.
The above supernatant was loaded on a Mono Q Sepharose High Performance column (Amersham Pharmacia Biotech) equilibrated with elution buffer (20 mM Tris-HCl, pH 8.0, 1 mM ethylene glycol bis(β-aminoethylether)-N,N,N′,N′-tetraacetic acid, 1 mM dithiothreitol, 2 μg/ml leupeptin, 5 mM benzamidine). After washing the column with 20 ml of elution buffer, proteins were eluted into 1 ml fractions by aqueous sodium chloride solution (concentration gradient: 0 to 1000 mM, 70 ml) under ice-cooling. Each fraction was subjected to the determination of hydrolytic activity (PDE activity) toward cAMP and cGMP as a substrate.
The determination of PDE activity was performed by a radio-labeled nucleic acid assay. That is, the reaction was initiated by adding from 10 to 50 μl of elution fraction to 500 μl of assay buffer (50 mM Tris-HCl, pH 8.0, 5 mM magnesium chloride, 4 mM 2-mercaptoethanol) containing 1 μM of unlabeled cAMP and 22 nM of [^3H]-cAMP (Amersham Pharmacia Biotech).
After incubation at 37° C. for 30 minutes, the reaction was quenched by boiling for 1.5 minutes. Then, 100 μl of 1 mg/ml Crtalus atrox snake venom was added and incubated at 37° C. for 30 minutes. After addition of 500 μl of methanol, the reaction solution was subjected to Dowex column (1×8-400). To each eluate was added a liquid scintillation cocktail and the radio activity was measured.
The inhibitory activity of PDE4 inhibitor on fraction Nos. 28-30 containing potent cAMP hydrolyzing activity was measured according to the above-mentioned radio-labeled nucleic acid assay. The test compounds are Compound (1), Compound (2), Compound (11), Compound (44) and Compound (27).

[2] = system: rabbit articular chondrocytes; assay: Matrix production of rabbit articular chondrocytes in the presence of IL-1; assay type: cell-based; conditions: 1 × 10^−6 M; IL-1β 1 ng/ml; until day 3; vehicle = 100
Protocol: Four NZW line rabbits (Kitayama Labes., Co Ltd.; male; 4-week-old) were sacrificed with bleeding under ether anesthesia and knee joints of femur side were collected aseptically. Only the cortical layer was scrapped with a surgical knife in phosphate buffer (pH 7.2) containing 0.2% glucose and then placed into a 50 ml tube containing phosphate buffered saline containing 0.2% glucose. The collected knee joint cortical layer was cut into as small sections as possible on a dish with a razor, combined with 50 ml of phosphate buffer (100 mg trypsin, 40 mg EDTA·4 Na; pH 7.2) containing 0.2% glucose, supplied with 10× trypsin-ethylenediamine tetraacetic acid tetra sodium salt (EDTA·4Na: GIBCO; Cat. No. 15400-054) and shaken at 37° C. for 15 minutes.
After shaking, the precipitates were collected by centrifugation (1,400 rpm) and washed twice with 40 ml of phosphate buffer (pH 7.2) with 0.2% glucose.
To the washed precipitates was added 40 ml of α-minimum essential medium (MEM: GIBCO; Cat. No. 12571-063) containing 60 mg of collagenase for cell diffusion (Wako Pure Chemical Industries, Ltd., 034-10533) and antibiotics (200 U/ml penicillin G and 200 μg/ml streptomycin sulfate) (GIBCO; Cat. No. 15140-122), and the mixture was transferred to a 100 ml beaker containing a sterilized stirrer bar.
The incubation was conducted in a CO2 incubator at 37° C. for 30 minutes under stirring with a stirrer bar. Deoxyribonuclease I (Takara Shuzo Co., LTD.; Cat. No. 2210A) was then added at a concentration of 70 U/ml. The cultivation was conducted under the same condition for another 30 minutes. The supernatant of the culture was collected in another vessel and the remaining cartilage slips were then cultured again for about 30 minutes in freshly prepared α-minimum essential medium containing 60 mg of collagenase and 70 U/m1 deoxyribonuclease I.
To the previously collected culture supernatant and the last culture, from which cartilage slips had been removed using a 40 μm Cell Strainer (FALCON; Cat. No. 2340), 10 ml of α-minimum essential medium (MEM: GIBCO; Cat. No. 12571-063) containing 10% fetal calf serum (GIBCO Cat. No. 10099-141) and antibiotics (200 U/ml penicillin G and 200 μg/ml streptomycin sulfate) (GIBCO; Cat. No. 15140-122) was added and centrifuged (1,400 rpm, 10 minutes).
The precipitates were washed twice with α-minimum essential medium containing 10% fetal calf serum and antibiotics, suspended with an appropriate volume of the same medium, and seeded into 48-well plates (20,000 cells/well). […]
After staining, the cells were washed 3 times with 1 ml of phosphate buffer (pH 7.2). Alcian blue which had stained cartilage matrix was dissolved with 0.25 ml of 6 M aqueous guanidine hydrochloride solution and a portion of which was used to determine the absorbance at 620 nm. […]

Row | SMILES | inhibition of the hydrolytic activity of the fraction ([1]; fraction Nos. 28-30, FIG. 4) | IC50 for fraction(s) ([1]; method of Journal of Medicinal Chemistry, vol. 42, 1088-1099 (1999), values only in FIG. 4) | Proteoglycan Production (%) [2]
1 | CCOc1cc2cc(CO)c(CO)c(-c3ccnc(-n4nc(-c5cccnc5)c5ccccc5c4=O)c3)c2cc1OCC [Compound (2)] | inhibits the hydrolytic activity of the fraction strongly | consistent with the IC50 of PDE4 inhibition activity described in the same literature | 143%
2 | COc1ccc(C(=O)Nc2c(Cl)cncc2Cl)cc1OC1CCCC1 [Compound (11)] |  |  | 121%
